Laboratory results published in ChEMBL document CHEMBL4325871 (Eur J Med Chem, 2019).

Key:
[1] = biological target: Serine/threonine-protein kinase Nek11 (Homo sapiens) (UniProt Q8NG66); test: Inhibition of human NEK11 assessed as residual activity at 1 uM using MBP as substrate by [gamma-33P]-ATP assay relative to control
[2] = biological target: Muscle, skeletal receptor tyrosine-protein kinase (Homo sapiens) (UniProt O15146); test: Inhibition of human MUSK assessed as residual activity at 1 uM using MBP as substrate by [gamma-33P]-ATP assay relative to control
Muscle, skeletal receptor tyrosine-protein kinase (Homo sapiens), sequence (O15146 whole entry): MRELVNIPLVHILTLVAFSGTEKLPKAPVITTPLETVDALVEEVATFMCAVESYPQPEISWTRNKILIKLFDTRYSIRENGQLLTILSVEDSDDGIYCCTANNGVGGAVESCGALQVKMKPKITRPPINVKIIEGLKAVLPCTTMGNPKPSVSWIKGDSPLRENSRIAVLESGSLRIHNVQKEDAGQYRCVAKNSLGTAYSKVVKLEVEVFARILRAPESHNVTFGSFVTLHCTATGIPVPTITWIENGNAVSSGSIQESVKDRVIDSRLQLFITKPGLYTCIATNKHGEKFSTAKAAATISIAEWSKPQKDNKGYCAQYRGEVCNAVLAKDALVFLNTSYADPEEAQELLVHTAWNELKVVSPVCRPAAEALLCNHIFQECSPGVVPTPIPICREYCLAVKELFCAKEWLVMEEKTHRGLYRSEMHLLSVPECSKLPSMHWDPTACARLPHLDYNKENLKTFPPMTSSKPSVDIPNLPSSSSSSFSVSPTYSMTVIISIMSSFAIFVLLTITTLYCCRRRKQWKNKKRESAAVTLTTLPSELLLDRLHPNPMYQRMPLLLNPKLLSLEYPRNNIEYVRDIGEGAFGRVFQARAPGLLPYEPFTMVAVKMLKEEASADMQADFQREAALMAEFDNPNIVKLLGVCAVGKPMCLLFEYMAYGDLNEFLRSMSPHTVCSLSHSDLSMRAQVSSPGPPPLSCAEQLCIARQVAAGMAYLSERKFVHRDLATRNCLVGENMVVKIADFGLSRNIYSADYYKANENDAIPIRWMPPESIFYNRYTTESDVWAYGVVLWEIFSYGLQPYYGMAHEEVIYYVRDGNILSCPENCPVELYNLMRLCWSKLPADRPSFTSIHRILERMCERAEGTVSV

[3] = biological target: Calcium/calmodulin-dependent protein kinase type IV (Homo sapiens) (UniProt Q16566); test: Inhibition of human CAMK4 assessed as residual activity at 1 uM using KKLNRTLSFAEPG as substrate by [gamma-33P]-ATP assay relative to control
[4] = biological target: Serine/threonine-protein kinase N2 (Homo sapiens) (UniProt Q16513); test: Inhibition of human PKN2 assessed as residual activity at 1 uM using KKLNRTLSVA as substrate by [gamma-33P]-ATP assay relative to control
[5] = biological target: Tyrosine-protein kinase ABL2 (Homo sapiens) (UniProt P42684); test: Inhibition of human ABL2 assessed as residual activity at 1 uM using EAIYAAPFAKKK as substrate by [gamma-33P]-ATP assay relative to control
Tyrosine-protein kinase ABL2 (Homo sapiens), sequence (P42684 whole entry): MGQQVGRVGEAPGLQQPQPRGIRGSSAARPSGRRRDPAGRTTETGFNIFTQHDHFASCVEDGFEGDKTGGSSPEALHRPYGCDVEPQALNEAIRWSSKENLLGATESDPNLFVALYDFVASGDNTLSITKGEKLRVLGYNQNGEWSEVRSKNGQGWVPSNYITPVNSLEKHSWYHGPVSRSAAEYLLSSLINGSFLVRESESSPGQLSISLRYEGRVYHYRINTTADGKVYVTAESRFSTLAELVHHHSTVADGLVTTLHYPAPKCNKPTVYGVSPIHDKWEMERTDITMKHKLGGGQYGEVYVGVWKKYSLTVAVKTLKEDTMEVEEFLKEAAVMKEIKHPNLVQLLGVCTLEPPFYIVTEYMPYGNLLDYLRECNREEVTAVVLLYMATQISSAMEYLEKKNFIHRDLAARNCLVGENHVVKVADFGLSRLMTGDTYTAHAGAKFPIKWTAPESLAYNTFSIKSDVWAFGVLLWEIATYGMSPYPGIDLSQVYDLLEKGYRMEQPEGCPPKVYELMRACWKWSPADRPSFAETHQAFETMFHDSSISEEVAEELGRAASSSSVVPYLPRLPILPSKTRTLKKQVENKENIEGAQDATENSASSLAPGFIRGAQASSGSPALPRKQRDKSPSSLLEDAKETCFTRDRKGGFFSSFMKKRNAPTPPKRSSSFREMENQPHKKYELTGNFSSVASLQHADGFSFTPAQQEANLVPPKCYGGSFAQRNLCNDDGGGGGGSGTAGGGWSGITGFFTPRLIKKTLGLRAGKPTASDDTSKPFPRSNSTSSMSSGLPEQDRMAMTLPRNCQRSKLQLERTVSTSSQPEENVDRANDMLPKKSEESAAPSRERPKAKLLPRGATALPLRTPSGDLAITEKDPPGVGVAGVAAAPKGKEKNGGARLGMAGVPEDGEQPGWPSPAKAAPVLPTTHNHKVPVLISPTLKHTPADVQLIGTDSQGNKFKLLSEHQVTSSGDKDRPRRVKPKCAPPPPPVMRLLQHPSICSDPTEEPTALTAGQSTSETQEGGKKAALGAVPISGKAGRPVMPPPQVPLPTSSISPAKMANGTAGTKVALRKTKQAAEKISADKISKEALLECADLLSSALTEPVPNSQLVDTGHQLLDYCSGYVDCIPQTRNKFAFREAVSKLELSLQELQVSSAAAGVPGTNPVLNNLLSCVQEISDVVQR

[6] = biological target: Tyrosine-protein kinase ITK/TSK (Homo sapiens) (UniProt Q08881); test: Inhibition of human ITK assessed as residual activity at 1 uM using MBP as substrate by [gamma-33P]-ATP assay relative to control
[7] = biological target: Serine/threonine-protein kinase pim-3 (Homo sapiens) (UniProt Q86V86); test: Inhibition of human PIM3 assessed as residual activity at 1 uM using RSRHSSYPAGT as substrate by [gamma-33P]-ATP assay relative to control
[8] = biological target: CDK18/Cyclin Y (Homo sapiens) (UniProt Q07002+Q8ND76); test: Inhibition of human CDK18/cyclin-Y assessed as residual activity at 1 uM using RB protein as substrate by [gamma-33P]-ATP assay relative to control; type: protein-complex assay
[9] = biological target: Protein kinase C gamma type (Homo sapiens) (UniProt P05129); test: Inhibition of human PKCgamma assessed as residual activity at 1 uM using ERMRPRKRQGSVRRRV as substrate by [gamma-33P]-ATP assay relative to control
[10] = biological target: SNF-related serine/threonine-protein kinase (Homo sapiens) (UniProt Q9NRH2); test: Inhibition of human SNRK assessed as residual activity at 1 uM using MBP as substrate by [gamma-33P]-ATP assay relative to control
[11] = biological target: Serine/threonine-protein kinase Nek8 (Homo sapiens) (UniProt Q86SG6); test: Inhibition of human NEK8 assessed as residual activity at 1 uM using casein as substrate by [gamma-33P]-ATP assay relative to control
[12] = biological target: Activated CDC42 kinase 1 (Homo sapiens) (UniProt Q07912); test: Inhibition of human ACK1 assessed as residual activity at 1 uM using EAIYAAPFAKKK as substrate by [gamma-33P]-ATP assay relative to control
[13] = biological target: MAP/microtubule affinity-regulating kinase 3 (Homo sapiens) (UniProt P27448); test: Inhibition of human MARK3 assessed as residual activity at 1 uM using KKKVSRSGLYRSPSMPENLNRPR as substrate by [gamma-33P]-ATP assay relative to control
[14] = biological target: Inactive tyrosine-protein kinase PEAK1 (Homo sapiens) (UniProt Q9H792); test: Inhibition of human PEAK1 assessed as residual activity at 1 uM using MBP as substrate by [gamma-33P]-ATP assay relative to control
[15] = biological target: Serine/threonine-protein kinase Nek6 (Homo sapiens, UniProt Q9HC98); test: Inhibition of human NEK6 assessed as residual activity at 1 uM using casein as substrate by [gamma-33P]-ATP assay relative to control
Serine/threonine-protein kinase Nek6, sequence (Q9HC98 whole entry): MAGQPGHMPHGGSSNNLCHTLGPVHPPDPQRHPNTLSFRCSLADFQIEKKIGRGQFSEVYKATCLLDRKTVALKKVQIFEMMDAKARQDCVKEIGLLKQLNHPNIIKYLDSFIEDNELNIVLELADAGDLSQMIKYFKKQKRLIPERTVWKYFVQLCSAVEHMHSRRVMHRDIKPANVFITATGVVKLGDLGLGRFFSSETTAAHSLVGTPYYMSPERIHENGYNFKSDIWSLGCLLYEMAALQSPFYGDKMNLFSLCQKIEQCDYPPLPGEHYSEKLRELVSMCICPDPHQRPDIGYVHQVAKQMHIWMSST

[16] = biological target: Leucine-rich repeat serine/threonine-protein kinase 2 (Homo sapiens) (UniProt Q5S007); test: Inhibition of human LRRK2 assessed as residual activity at 1 uM using RLGRDKYKTLRQIRQ as substrate by [gamma-33P]-ATP assay relative to control
[17] = biological target: Myosin light chain kinase, smooth muscle (Homo sapiens) (UniProt Q15746); test: Inhibition of human MLCK assessed as residual activity at 1 uM using KKLNRTLSFAEPG as substrate by [gamma-33P]-ATP assay relative to control
[18] = biological target: Calcium/calmodulin-dependent protein kinase kinase 2 (Homo sapiens) (UniProt Q96RR4); test: Inhibition of human CAMKK2 assessed as residual activity at 1 uM using MBP as substrate by [gamma-33P]-ATP assay relative to control
Calcium/calmodulin-dependent protein kinase kinase 2 (Homo sapiens), sequence (Q96RR4 2-588 limits assumed): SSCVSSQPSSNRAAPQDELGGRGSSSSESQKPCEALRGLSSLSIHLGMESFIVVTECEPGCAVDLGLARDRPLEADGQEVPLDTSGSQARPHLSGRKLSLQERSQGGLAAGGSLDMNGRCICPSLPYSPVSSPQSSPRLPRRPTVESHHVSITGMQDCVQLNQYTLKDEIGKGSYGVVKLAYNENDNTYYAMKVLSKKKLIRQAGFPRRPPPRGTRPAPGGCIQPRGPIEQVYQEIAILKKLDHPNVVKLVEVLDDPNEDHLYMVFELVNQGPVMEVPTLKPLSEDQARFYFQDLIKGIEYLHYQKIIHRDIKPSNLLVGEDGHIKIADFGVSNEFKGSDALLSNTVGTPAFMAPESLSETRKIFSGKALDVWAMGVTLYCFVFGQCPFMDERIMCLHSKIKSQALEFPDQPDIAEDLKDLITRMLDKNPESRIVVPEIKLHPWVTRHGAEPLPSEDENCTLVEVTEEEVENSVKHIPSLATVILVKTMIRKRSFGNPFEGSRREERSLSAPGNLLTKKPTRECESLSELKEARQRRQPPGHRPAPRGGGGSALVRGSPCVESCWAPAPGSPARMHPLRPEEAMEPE

[19] = biological target: Mitogen-activated protein kinase 8 (Homo sapiens) (UniProt P45983); test: Inhibition of human JNK1 assessed as residual activity at 1 uM using ATF2 as substrate by [gamma-33P]-ATP assay relative to control
Mitogen-activated protein kinase 8 (Homo sapiens), sequence (P45983 whole entry): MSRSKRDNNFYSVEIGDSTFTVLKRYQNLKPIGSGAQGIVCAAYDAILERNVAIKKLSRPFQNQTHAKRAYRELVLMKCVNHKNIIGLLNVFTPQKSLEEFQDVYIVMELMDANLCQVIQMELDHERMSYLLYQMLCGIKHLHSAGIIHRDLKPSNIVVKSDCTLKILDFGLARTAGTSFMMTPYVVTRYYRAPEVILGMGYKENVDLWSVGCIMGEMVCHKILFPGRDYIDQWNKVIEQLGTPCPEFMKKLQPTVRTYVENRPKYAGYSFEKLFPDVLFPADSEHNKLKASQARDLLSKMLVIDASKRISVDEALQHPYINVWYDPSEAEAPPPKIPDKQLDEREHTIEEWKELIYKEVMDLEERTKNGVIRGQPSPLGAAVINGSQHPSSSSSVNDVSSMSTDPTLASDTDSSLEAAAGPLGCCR

[20] = biological target: CDK1/Cyclin E (Homo sapiens) (UniProt P06493+P24864); test: Inhibition of human CDK1/cyclinE assessed as residual activity at 1 uM using RB protein as substrate by [gamma-33P]-ATP assay relative to control; type: protein-complex assay
[21] = biological target: Serine/threonine-protein kinase ULK2 (Homo sapiens) (UniProt Q8IYT8); test: Inhibition of human ULK2 assessed as residual activity at 1 uM using MBP as substrate by [gamma-33P]-ATP assay relative to control
Serine/threonine-protein kinase ULK2 (Homo sapiens), sequence (Q8IYT8 whole entry): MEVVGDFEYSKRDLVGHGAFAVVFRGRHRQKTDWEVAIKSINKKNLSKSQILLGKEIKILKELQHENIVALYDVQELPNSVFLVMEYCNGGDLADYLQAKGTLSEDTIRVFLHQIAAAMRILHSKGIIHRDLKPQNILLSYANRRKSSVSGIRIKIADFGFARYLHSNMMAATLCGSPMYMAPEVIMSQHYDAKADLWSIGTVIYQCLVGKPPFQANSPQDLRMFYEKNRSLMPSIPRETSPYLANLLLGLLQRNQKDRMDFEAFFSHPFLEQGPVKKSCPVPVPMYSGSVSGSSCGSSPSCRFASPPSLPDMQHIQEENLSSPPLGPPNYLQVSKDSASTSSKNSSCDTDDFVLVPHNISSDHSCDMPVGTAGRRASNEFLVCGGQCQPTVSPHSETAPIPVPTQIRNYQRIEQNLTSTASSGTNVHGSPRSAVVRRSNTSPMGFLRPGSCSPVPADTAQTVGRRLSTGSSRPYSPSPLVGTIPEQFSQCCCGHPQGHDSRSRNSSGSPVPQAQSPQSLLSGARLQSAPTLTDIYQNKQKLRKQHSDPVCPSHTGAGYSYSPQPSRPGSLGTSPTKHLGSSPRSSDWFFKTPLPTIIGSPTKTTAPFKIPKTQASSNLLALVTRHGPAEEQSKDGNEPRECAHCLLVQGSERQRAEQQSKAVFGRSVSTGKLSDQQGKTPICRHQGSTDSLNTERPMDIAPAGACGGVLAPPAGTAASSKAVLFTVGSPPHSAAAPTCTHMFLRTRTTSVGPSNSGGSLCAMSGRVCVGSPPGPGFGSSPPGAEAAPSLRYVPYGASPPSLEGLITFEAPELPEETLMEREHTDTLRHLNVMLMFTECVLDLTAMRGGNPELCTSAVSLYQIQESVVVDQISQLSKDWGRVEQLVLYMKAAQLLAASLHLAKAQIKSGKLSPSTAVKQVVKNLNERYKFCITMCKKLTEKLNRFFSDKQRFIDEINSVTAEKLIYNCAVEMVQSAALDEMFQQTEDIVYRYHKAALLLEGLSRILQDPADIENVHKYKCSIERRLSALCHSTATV

[22] = biological target: Serine/threonine-protein kinase DCLK1 (Homo sapiens) (UniProt O15075); test: Inhibition of human DCAMKL1 assessed as residual activity at 1 uM using KKLNRTLSFAEPG as substrate by [gamma-33P]-ATP assay relative to control
[23] = biological target: Serine/threonine-protein kinase N3 (Homo sapiens) (UniProt Q6P5Z2); test: Inhibition of human PKN3 assessed as residual activity at 1 uM using KKLNRTLSVA as substrate by [gamma-33P]-ATP assay relative to control
[24] = biological target: Serine/threonine-protein kinase 16 (Homo sapiens) (UniProt O75716); test: Inhibition of human STK16 assessed as residual activity at 1 uM using MBP as substrate by [gamma-33P]-ATP assay relative to control
[25] = biological target: Receptor-interacting serine/threonine-protein kinase 2 (Homo sapiens) (UniProt O43353); test: Inhibition of human RIPK2 assessed as residual activity at 1 uM using MBP as substrate by [gamma-33P]-ATP assay relative to control
[26] = biological target: Casein kinase I isoform gamma-1 (Homo sapiens) (UniProt Q9HCP0); test: Inhibition of human CK1gamma1 assessed as residual activity at 1 uM using KRRRAL[pS]VASLPGL as substrate by [gamma-33P]-ATP assay relative to control
[27] = biological target: Serine/threonine-protein kinase ICK (Homo sapiens) (UniProt Q9UPZ9); test: Inhibition of human LCK2 assessed as residual activity at 1 uM using MBP as substrate by [gamma-33P]-ATP assay relative to control
Serine/threonine-protein kinase ICK (Homo sapiens), sequence (Q9UPZ9 whole entry): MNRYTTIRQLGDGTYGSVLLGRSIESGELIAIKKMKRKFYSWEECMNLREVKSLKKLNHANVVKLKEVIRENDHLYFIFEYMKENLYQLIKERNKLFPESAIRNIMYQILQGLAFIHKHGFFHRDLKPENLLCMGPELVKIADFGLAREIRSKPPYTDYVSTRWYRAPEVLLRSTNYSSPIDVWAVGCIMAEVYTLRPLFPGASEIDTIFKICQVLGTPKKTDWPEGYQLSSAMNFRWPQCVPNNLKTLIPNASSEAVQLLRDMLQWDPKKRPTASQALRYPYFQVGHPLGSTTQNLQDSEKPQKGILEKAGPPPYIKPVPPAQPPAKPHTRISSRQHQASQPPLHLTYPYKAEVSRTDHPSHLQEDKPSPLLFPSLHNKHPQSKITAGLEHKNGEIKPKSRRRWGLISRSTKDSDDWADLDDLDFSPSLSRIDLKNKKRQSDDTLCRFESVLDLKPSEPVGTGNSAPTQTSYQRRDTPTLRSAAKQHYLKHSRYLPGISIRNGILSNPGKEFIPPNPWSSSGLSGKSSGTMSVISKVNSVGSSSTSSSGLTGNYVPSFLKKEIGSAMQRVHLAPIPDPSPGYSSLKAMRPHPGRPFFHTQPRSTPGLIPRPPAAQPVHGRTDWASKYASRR

Structure (SMILES): C(=C\c1ccccc1)/C[N+]12CN3CN(CN(C3)C1)C2
- Activity [1]: 95 to 96.2%
- Activity [2]: 89.6%
- Activity [3]: 92.2 to 94.4%
- Activity [4]: 95.9 to 108%
- Activity [5]: 93.5 to 96.7%
- Activity [6]: 91.3 to 92.2%
- Activity [7]: 104 to 107%
- Activity [8]: 92.5 to 93.7%
- Activity [9]: 94.5 to 96.3%
- Activity [10]: 79.8 to 81%

Structure (SMILES): ClC/C=C/C[N+]12CN3CN(CN(C3)C1)C2
- Activity [11]: 88.6 to 89%
- Activity [12]: 90.6 to 94.8%
- Activity [13]: 148 to 153%
- Activity [14]: 94.2 to 94.3%
- Activity [15]: 95.3 to 95.6%
- Activity [16]: 91.5 to 93.5%
- Activity [17]: 90.5 to 94.9%
- Activity [18]: 83.7 to 87.4%
- Activity [19]: 96 to 96.5%
- Activity [20]: 98.8 to 100%
- Activity [21]: 93.7 to 95.4%
- Activity [22]: 92.8 to 93.2%
- Activity [23]: 92.3 to 92.9%
- Activity [24]: 93.1 to 95.2%
- Activity [25]: 95.4 to 96.7%
- Activity [26]: 94.4 to 96.5%
- Activity [27]: 85.1 to 89.7%
